Data taken from patent publication US20230407243A1, “GENETIC PLATFORM TO INVESTIGATE THE FUNCTIONS OF BACTERIAL DRUG EFFLUX PUMPS” (priority 2022, published 2023).

Experiments:
Type in all cases: cell-based, Escherichia coli
E. coli ΔtolC = assay: microbe, parasite or virus in culture; conditions: technical duplicate
Procedure: (§1) Single colonies were used to inoculate 3 mL of LB followed by incubation at 37° C. for 18 h with aeration at 220 rpm. The bacterial cells were harvested by centrifugation and resuspended in phosphate buffered saline (PBS) ([pH 7.4], 137 mM NaCl (Bioshop), 2.7 mM KCl (Bioshop), 10 mM Na2PO4 (Bioshop) and 1.8 mM K2PO4) to an OD600 nm˜1.0, followed by 1/2000 dilution into MHB II.
(§2) To a 384-well microtiter plate (Corning, untreated polystyrene), 500 nL of compound was dispensed, in duplicate, and serially titrated 2-fold using an Echo 550 acoustic liquid dispenser (Labcyte Inc.). […] As a solvent control, 500 nL of DMSO was applied to wells that contained no compound. Using a multichannel pipette, 50 μL of the prepared bacterial inoculum was applied to each well. To enable background correction post-incubation, the OD600 nm was measured (Biotek Synergy Neo2 microplate reader) prior to incubation. The plates were incubated at 37° C. with aeration at 900 rpm for 18 h. The plates were equilibrated to room temperature and the OD600 nm measured using a BioTek Synergy Neo2 microplate reader. Data was analyzed in both Prism (GraphPad, Version 9.2.0) and Microsoft Excel (Version 16.53). Raw data were input into Microsoft Excel and the pre-incubation OD600 nm measurements were subtracted from the post-incubation OD600 nm measurements. These corrected measurements were input into Prism 9 as a grouped analysis. […] All other MIC values were adjusted accordingly and visualized using the single-color scale grouped heat map function. Identification of compound chemical properties was achieved using DataWarrior (Version 5.5.0). Using PubChem, the SMILES chemical notation for each compound was obtained and compiled in Microsoft Excel. The resulting spreadsheet was input into DataWarrior and properties were calculated from the compound chemical structures.

E. coli EKO-35 = assay: microbe, parasite or virus in culture
Procedure: as §1, §2

[1] = test system: wild-type E. coli K-12 str. BW25113; assay: microbe, parasite or virus in culture; conditions: technical duplicate
Procedure: as §1, §2

EKO-35 araC::macAB = assay: MIC susceptibility profiling, efflux platform
Procedure: as §1, §2

EKO-35 araC::emrAB = assay: MIC susceptibility profiling, efflux platform
Procedure: as §1, §2

EKO-35 araC::acrEF = assay: MIC susceptibility profiling, efflux platform
Procedure: as §1, §2

ΔtolC-Pore = assay: microbe, parasite or virus in culture; conditions: technical duplicate
Procedure: (§3) For genomic integration of the pore, the fhuA ΔC/Δ4L gene and the adjacent gentamicin resistance cassette were amplified using a high-fidelity polymerase and the fhuA_40_Up/gImS_3680_Low primers (Table 4). Integration of the pore gene was performed as described above. The pore gene was introduced into the intergenic region between the glmS and pstS genes, with gene expression under the control of a constitutive promoter (Kearse, M. et al., 2012). Genomic integrations were verified using PCR (Primers: pstS_520_Up/glmS_3680_Low, Table 4). Successful integrations were transformed with pCP20 to remove the gentamicin resistance cassette as previously described. Activity of the pore was confirmed through susceptibility testing with the large antibiotic vancomycin prior to phenotypic profiling and further susceptibility testing.
as §1, §2

wild-type (WT) K-12-Pore = assay: microbe, parasite or virus in culture; conditions: technical duplicate
Procedure: as §3, §1, §2

EKO-35-Pore = assay: MIC susceptibility profiling, porinated strain
Procedure: as §3, §1, §2

EKO-35 araC::acrD Pore = assay: MIC susceptibility profiling, porinated efflux platform
Procedure: as §3, §1, §2

EKO-35 araC::mdtBC Pore = assay: as above
Procedure: as §3, §1, §2

EKO-35 araC::emrAB Pore = assay: as above
Procedure: as §3, §1, §2

EKO-35 araC::macAB Pore = assay: as above
Procedure: as §3, §1, §2

[2] = test system: EKO-35 araC::acrBD408A Pore; assay: as above
Procedure: as §3, §1, §2

EKO-35 araC::acrEF Pore = assay: as above
Procedure: as §3, §1, §2

EKO-35 araC::acrB Pore = assay: as above
Procedure: as §3, §1, §2

EKO-35 araC::mexCD Pore = assay: as above
Procedure: as §3, §1, §2

EKO-35 araC::mdtEF Pore = assay: as above
Procedure: as §3, §1, §2

EKO-35 araC::emrKY Pore = assay: as above
Procedure: as §3, §1, §2

[3] = Table 13A, non-porinated, technical duplicate
[4] = Table 13B, non-porinated, technical duplicate
[5] = Table 14A, porinated, technical duplicate

In the case of `C=C1CCO[C@]2([C@@H](O)[C@@](C)(O)CO)NC(=O)[C@@]1(O)NC2=O` [Bicyclomycin], the “Minimum inhibitory concentration (MIC), ΔtolC” value (E. coli ΔtolC; Table 10, without pore) is reported as 200 µg/mL, the “Minimum Inhibitory Concentration, ΔtolC” value (E. coli ΔtolC; Table 13A, non-porinated) is reported as 200 µg/mL and the “Fold change of MICs” value (E. coli EKO-35; EKO-35 compared to EKO-35 (reference)) is reported as 1 fold. The “Minimum inhibitory concentration (MIC), EKO-35” value (E. coli EKO-35; Table 10, without pore, technical duplicate) was 200 µg/mL, the “Minimum Inhibitory Concentration, EKO-35” value (E. coli EKO-35; [3]) was 200 µg/mL and the “Minimum inhibitory concentration (MIC), K-12” value ([1]; Table 10, without pore) was 200 µg/mL. For the same molecule, the “Minimum Inhibitory Concentration, K-12” value ([1]; Table 13A, non-porinated) was 200 µg/mL, the “Fold change of MICs” value (EKO-35 araC::macAB; EKO-35 araC::macAB compared to EKO-35) was 1 fold and the “Minimum Inhibitory Concentration, EKO-35 araC::macAB” value (EKO-35 araC::macAB; [4]) was 200 µg/mL. The “Fold change of MICs” value (EKO-35 araC::emrAB; EKO-35 araC::emrAB compared to EKO-35) was 1 fold, the “Minimum Inhibitory Concentration, EKO-35 araC::emrAB” value (EKO-35 araC::emrAB; [4]) was 200 µg/mL and the “Fold change of MICs” value (EKO-35 araC::acrEF; EKO-35 araC::acrEF compared to EKO-35) was 1 fold. The “Minimum Inhibitory Concentration, EKO-35 araC::acrEF” value (EKO-35 araC::acrEF; [3]) was 200 µg/mL, the “Minimum inhibitory concentration (MIC), Pore ΔtolC” value (ΔtolC-Pore; Table 10, with pore) was 200 µg/mL and the “Minimum inhibitory concentration, ΔtolC-Pore” value (ΔtolC-Pore; Table 14A, porinated) was 200 µg/mL. For the same molecule, the “Minimum inhibitory concentration (MIC), Pore K-12” value (wild-type (WT) K-12-Pore; Table 10, with pore) was 200 µg/mL, the “Minimum inhibitory concentration, K-12 (WT)-Pore” value (wild-type (WT) K-12-Pore; Table 14A, porinated) was 200 µg/mL and the “Fold changes of MICs” value (EKO-35-Pore; EKO-35-Pore compared to EKO-35-Pore (reference)) was 1 fold. For the same molecule, the “Minimum inhibitory concentration (MIC), Pore EKO-35” value (EKO-35-Pore; Table 10, with pore, technical duplicate) was 200 µg/mL, the “Minimum inhibitory concentration, EKO-35-Pore” value (EKO-35-Pore; [5]) was 200 µg/mL and the “Fold changes of MICs” value (EKO-35 araC::acrD Pore; EKO-35 araC::acrD Pore compared to EKO-35-Pore) was 1 fold. For the same molecule, the “Minimum inhibitory concentration, EKO-35 araC::acrD Pore” value (EKO-35 araC::acrD Pore; [5]) was 200 µg/mL, the “Fold changes of MICs” value (EKO-35 araC::mdtBC Pore; EKO-35 araC::mdtBC Pore compared to EKO-35-Pore) was 1 fold and the Minimum inhibitory concentration (EKO-35 araC::mdtBC Pore; EKO-35 araC::mdtBC Pore, technical duplicate) was 200 µg/mL. The “Fold changes of MICs” value (EKO-35 araC::emrAB Pore; EKO-35 araC::emrAB Pore compared to EKO-35-Pore) was 1 fold, the Minimum inhibitory concentration (EKO-35 araC::emrAB Pore; EKO-35 araC::emrAB Pore, technical duplicate) was 200 µg/mL and the “Fold changes of MICs” value (EKO-35 araC::macAB Pore; EKO-35 araC::macAB Pore compared to EKO-35-Pore) was 1 fold. For the same molecule, the Minimum inhibitory concentration (EKO-35 araC::macAB Pore; EKO-35 araC::macAB Pore, technical duplicate) was 200 µg/mL, the “Fold changes of MICs” value ([2]; EKO-35 araC::acrBD408A Pore compared to EKO-35-Pore) was 1 fold and the Minimum inhibitory concentration ([2]; EKO-35 araC::acrBD408A Pore, technical duplicate) was 200 µg/mL. For the same molecule, the “Fold changes of MICs” value (EKO-35 araC::acrEF Pore; EKO-35 araC::acrEF Pore compared to EKO-35-Pore) was 1 fold, the “Minimum inhibitory concentration, EKO-35 araC::acrEF Pore” value (EKO-35 araC::acrEF Pore; [5]) was 200 µg/mL and the “Fold changes of MICs” value (EKO-35 araC::acrB Pore; EKO-35 araC::acr-B Pore compared to EKO-35-Pore) was 1 fold. For the same molecule, the “Minimum inhibitory concentration, EKO-35 araC::acrB Pore” value (EKO-35 araC::acrB Pore; [5]) was 200 µg/mL, the “Fold changes of MICs” value (EKO-35 araC::mexCD Pore; EKO-35 araC::mexCD Pore compared to EKO-35-Pore) was 1 fold and the Minimum inhibitory concentration (EKO-35 araC::mexCD Pore; EKO-35 araC::mexCD Pore, technical duplicate) was 200 µg/mL. The “Fold changes of MICs” value (EKO-35 araC::mdtEF Pore; EKO-35 araC::mdtEF Pore compared to EKO-35-Pore) was 1 fold, the “Minimum inhibitory concentration, EKO-35 araC::mdtEF Pore” value (EKO-35 araC::mdtEF Pore; [5]) was 200 µg/mL and the “Fold changes of MICs” value (EKO-35 araC::emrKY Pore; EKO-35 araC::emrKY Pore compared to EKO-35-Pore) was 1 fold. It also gave a Minimum inhibitory concentration (EKO-35 araC::emrKY Pore; EKO-35 araC::emrKY Pore, technical duplicate) of 200 µg/mL.
